Data reported in patent EP0382875A1, “Dispersant for biologically active peptide” (Matuo, Yuhsy, priority 1989, dated 1990).

Legend:
[1] = Solubility in water and organic solvents; type: physicochemical
From the text: That is, CHAPS or CHAPSO can be removed by utilizing difference in solubility in organic solvents. CHAPS or CHAPSO is soluble in water, methanol and dimethylsulfoxide but insoluble in other solvents (acetone, acetonitrile, ether, chloroform, 2-methyl-1-propanol, N,N-dimethylformamide, isoamly alcohol, ethanol, hexane, xylene, petroleum ether, benzene, n-heptane, toluene). Utilizing the difference in solubility, CHAPS or CHAPSO can easily be removed.

BALB/C3T3 fibroblasts = experiment: Cytotoxicity of dispersants: DNA synthesis activity ([3H]thymidine incorporation) in cultured fibroblasts; type: cell-based, mouse; conditions: added to medium at 1 x 10⁻⁴ to 1 x 10⁻¹%, culture 19 hours; compared with NOG, SB12, Triton X-100, NP-40
Protocol: Upon culturing BALB/C3T3 fibroblasts in bovine serum-supplemented medium on a 24 well plate, CHAPS, NOG (1-O-n-octyl-β-D-glucopyranoside), SB12 (3-(dodecylmethylammonio)-1-propane sulfonate: sulfobetaine 12), Triton X-100 and NP-40 (Nonidet P-40) were added to the medium at concentrations of 1 x l0⁻⁴ to 1 x 10⁻¹%.
(§1) BALB/C3T3 cells, a kind of fibroblasts established from a mouse fetus were suspended in 3% bovine serum-containing DME medium (DME-3% CS) at a concentration of 2 x 10⁴/ml. One milliliter of the suspension was taken and cultured at 37°C for 5 hours on a 24 well tissue culture dish. Then, the medium was replaced by 1 ml of DME-1% CS followed by culturing at 37°C for 48 hours. A sample (2 to 20 µl) was added thereto, followed by culturing for further 16 hours.
(§2) Then, 10 µl of 2 x 10⁻⁵ M[³H]thymidine (40 µCi/ml) was supplemented. After culturing for 3 hours, radioactivity incorporated into DNA fraction was measured. That is, after the medium was removed, cells were rinsed with 1 ml of PBS (phosphate-buffered saline) once and 3 times with 1 ml of cold 10% TCA (trichloroacetic acid). Then, 1 ml of 0.5 M NaOH was added thereto. After allowing to stand at room temperature for 15 minutes, the mixture was neutralized with 5 M HCl. Scintillator cocktail, 6 ml, was added thereto to measure the radioactivity.

BALB/C3T3 cells [2] = experiment: Adsorption of FGF to containers of different kinds, with or without CHAPS (FGF activity after storage); type: physicochemical, mouse; conditions: addition of 0.1% CHAPS; FGF 0.5 µg/ml PBS; 4°C for 2 days
Protocol: (§3) Next, examples of the present invention are shown. DNA synthesis activity or FGF activity of samples was determined by the method shown in Example 1 and expressed by cpm (counts per minute) x 10⁻⁴/well/3h.
as §1
as §2, with “After allowing to stand at room temperature for 15 minutes, the mixture was neutralized with 5 M HCl.” left out
Commercially available FGF (fibroblast growth factor) was charged in containers shown in Table 1, respectively, in 0.5 µg/ml PBS; the containers were charged with or without 0.1% CHAPS. After storing at 4°C for 2 days, FGF activity in each container was measured.

BALB/C3T3 cells [3] = experiment: Thermal stability of FGF at 50°C with or without CHAPS (FGF activity); type: physicochemical, mouse; conditions: FGF 5 µg/ml, 1% CHAPS, 50°C for 1 hour
Protocol: as §3, §1, §2
After commercially available FGF (5 µg/ml) added with 1% CHAPS or added with no CHAPS was allowed to stand at 50°C for 1 hour, stability of FGF was examined. […]

[4] = Heparin-5PW HPLC of extract from BPH tissues with or without CHAPS (elution of FGF activity); type: physicochemical, human; conditions: Heparin-5PW HPLC of BPH tissue extract, 0.1% CHAPS versus no CHAPS
From the text: An extract from human benign prostatic hypertrophy (BPH) tissues was subjected to Heparin-5PW HPLC without adding any CHAPS thereto.
An extract from BPH tissues was subjected to Heparin-5PW HPLC in the presence of 0.1% CHAPS thereto.

[5] = in other solvents (acetone, acetonitrile, ether, chloroform, 2-methyl-1-propanol, N,N-dimethylformamide, isoamyl alcohol, ethanol, hexane, xylene, petroleum ether, benzene, n-heptane, toluene)
[6] = in water, methanol and dimethylsulfoxide

| SMILES | solubility [1, 5] | solubility [1, 6] | cytotoxicity (DNA synthesis activity) (BALB/C3T3 fibroblasts) | adsorption of FGF onto the containers (BALB/C3T3 cells [2]) | effect on thermal instability of FGF (BALB/C3T3 cells [3]) | adsorption of FGF onto carrier and device during chromatographies [4] |
| --- | --- | --- | --- | --- | --- | --- |
| C[C@H](CCC(=O)NCCC[N+](C)(C)CC(O)CS(=O)(=O)[O-])[C@H]1CC[C@H]2[C@@H]3[C@H](O)C[C@@H]4C[C@H](O)CC[C@]4(C)[C@H]3C[C@H](O)[C@]12C (some centres unmarked) [CHAPSO, 3-(3-cholamidopropyl)dimethylammonio]-2-hydroxy-1-propane sulfonate] | insoluble | soluble | – | – | – | – |
| C[C@H](CCC(=O)NCCC[N+](C)(C)CCCS(=O)(=O)[O-])[C@H]1CC[C@H]2[C@@H]3[C@H](O)C[C@@H]4C[C@H](O)CC[C@]4(C)[C@H]3C[C@H](O)[C@]12C [CHAPS, 3-[(3-cholamidopropyl)dimethylammonio]-1-propane sulfonate] | insoluble | soluble | least cytotoxicity among various surface active agents | effectively prevented | stabilizing effect | prevents adsorption of FGF onto a carrier and device |
